pIC50: −log10 of the molar value.

One assay addresses p90 RSK (Homo sapiens, UniProt P51812). Put plainly: inhibition of the kinase activity of p90 RSK (Table 1). Type of assay: biochemical. The text has this:
Methods for testing the ability of SL0101, and analogs and derivatives thereof, synthesized according to the methods disclosed herein, to inhibit p90 ribosomal S6 kinase (RSK) activity and cellular and metabolic processes downstream from RSK activity, are known to those of ordinary skill in the art. Some specific assays are provided in citation number 5 (Smith et al., Cancer Res., 2005, 65:1027), which is incorporated by reference in its entirety. The assays include various kinase assays, cell cycle analysis, gene silencing, and analysis of cells and tissues in vitro and in vivo.
Some specific assays are provided in citation number 5 (Smith et al., Cancer Res., 2005, 65:1027), which is incorporated by reference in its entirety.

The test system of a further assay is PKC. The conditions noted are these: upstream kinase; cited from earlier work.
Another assay relates to Raf. As to conditions: upstream kinase; cited from earlier work.
A further assay concerns MEK. The conditions noted are these: upstream kinase; cited from earlier work.

Chain of p90 RSK (P51812 whole entry): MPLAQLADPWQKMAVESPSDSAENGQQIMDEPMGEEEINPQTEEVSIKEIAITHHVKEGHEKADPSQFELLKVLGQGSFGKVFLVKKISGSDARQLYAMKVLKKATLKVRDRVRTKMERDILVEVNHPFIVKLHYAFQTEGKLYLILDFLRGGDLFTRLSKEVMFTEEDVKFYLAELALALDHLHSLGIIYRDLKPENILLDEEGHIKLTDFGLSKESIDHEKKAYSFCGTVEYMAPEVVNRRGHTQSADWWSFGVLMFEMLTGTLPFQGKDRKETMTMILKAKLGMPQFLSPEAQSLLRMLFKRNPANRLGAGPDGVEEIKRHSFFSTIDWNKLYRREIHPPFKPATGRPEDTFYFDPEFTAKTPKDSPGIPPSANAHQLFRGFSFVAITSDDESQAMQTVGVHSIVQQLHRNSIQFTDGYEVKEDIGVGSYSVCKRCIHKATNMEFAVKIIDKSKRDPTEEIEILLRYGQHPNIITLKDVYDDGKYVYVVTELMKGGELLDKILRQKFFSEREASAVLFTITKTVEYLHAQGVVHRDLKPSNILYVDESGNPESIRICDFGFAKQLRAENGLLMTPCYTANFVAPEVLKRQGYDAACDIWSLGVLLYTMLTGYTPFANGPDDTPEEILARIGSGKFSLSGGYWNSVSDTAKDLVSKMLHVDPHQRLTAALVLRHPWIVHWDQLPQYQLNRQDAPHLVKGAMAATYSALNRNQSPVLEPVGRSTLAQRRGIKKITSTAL

Compound `CC(=O)OC1C(C)OC(Oc2c(-c3ccc(O)cc3)oc3cc(O)cc(O)c3c2=O)C(OC(C)=O)C1O` (centres unmarked) [SL0101-3] had a pIC50 against p90 RSK of 6.24.
The same measure, in the same setting: next, `CC(=O)OC1C(C)OC(Oc2c(-c3ccc(O)cc3)oc3cc(O)cc(O)c3c2=O)C(O)C1O` (centres unmarked) [SL0101-2]: 6.72.
Consider `CC(=O)OC1C(C)OC(Oc2c(-c3ccc(O)cc3)oc3cc(O)cc(O)c3c2=O)C(O)C1OC(C)=O` (centres unmarked) [SL0101-1], for which the “inhibition of PKC” value with PKC is on record as “not to inhibit”. Besides, the “inhibition of Raf” value in the assay with Raf is “not to inhibit”. Also, the “inhibition of MEK” value in the assay on MEK is given as “not to inhibit”.

Broadly, the pIC50 is −log10 of the IC50, conventionally taken in molar units. Read a low pIC50 as a large IC50.

The record behind these values is US7605241B2, “Synthesis of inhibitors of p90Rsk” (University of Virginia Patent Foundation, priority 2005, dated 2009).
